Test results as given in patent US20250171462A1 (NICO Therapeutics, Inc., priority 2022, published 2025).

Biological target: T1, full-length SARM1 (FL-SARM1) (Homo sapiens, UniProt Q6SZW1)
T1 sequence (Q6SZW1 28-724): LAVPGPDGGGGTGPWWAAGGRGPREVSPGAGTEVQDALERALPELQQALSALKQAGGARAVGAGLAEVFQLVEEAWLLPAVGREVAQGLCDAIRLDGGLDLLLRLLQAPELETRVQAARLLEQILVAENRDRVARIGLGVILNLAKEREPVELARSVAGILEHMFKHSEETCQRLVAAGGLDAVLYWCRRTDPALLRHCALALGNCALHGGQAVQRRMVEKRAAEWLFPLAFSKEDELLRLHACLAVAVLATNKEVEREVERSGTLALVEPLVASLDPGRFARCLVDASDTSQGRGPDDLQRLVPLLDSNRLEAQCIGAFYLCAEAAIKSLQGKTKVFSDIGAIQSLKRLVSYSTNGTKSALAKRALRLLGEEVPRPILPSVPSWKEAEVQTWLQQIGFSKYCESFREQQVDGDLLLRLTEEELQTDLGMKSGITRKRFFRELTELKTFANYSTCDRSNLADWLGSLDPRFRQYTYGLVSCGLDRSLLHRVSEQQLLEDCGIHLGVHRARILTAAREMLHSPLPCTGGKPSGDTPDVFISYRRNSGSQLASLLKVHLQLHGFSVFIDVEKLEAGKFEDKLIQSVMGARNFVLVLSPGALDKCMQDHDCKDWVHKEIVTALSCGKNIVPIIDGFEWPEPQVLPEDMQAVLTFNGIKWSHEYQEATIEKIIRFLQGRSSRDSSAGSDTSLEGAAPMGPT
Assay: FL-SARM1 cellular lysate assay (NAD/NADH-Glo detection of remaining NAD+, NMN-activated)
Conditions: 11 point curve

SMILES	IC50 (Activity (IC50 class))	IC50 (Activity (μM) (IC50))
Cc1ccc(NC(=O)[C@H]2C[C@@H]2c2ccccc2)cc1-c1ncc(F)cn1 (racemic) [Example 257, trans-N-(3-(5-fluoropyrimidin-2-yl)-4-methylphenyl)-2-phenylcyclopropane-1-carboxamide]	> 10 µM	30 µM
Cc1ccc(NC(=O)C2CCC[C@@H](C)N2c2ccccn2)cc1-c1ncc(F)cn1 (mixture of isomers) [Example 258, cis-N-(3-(5-fluoropyrimidin-2-yl)-4-methylphenyl)-6-methyl-1-(pyridin-2-yl)piperidine-2-carboxamide]	1 to 10 µM	2.4 µM
Cc1ccc(NC(=O)[C@@H]2CO[C@H](C(F)(F)F)CN2c2ccccn2)cc1-c1ncc(F)cn1 (racemic) [Example 272, cis-N-(3-(5-fluoropyrimidin-2-yl)-4-methylphenyl)-4-(pyridin-2-yl)-6-(trifluoromethyl) morpholine-3-carboxamide]	1 to 10 µM	1.1 µM
Cc1ccc(NC(=O)[C@H]2CC[C@@H](C3CC3)N2c2ccccn2)cc1-c1ncc(F)cn1 (racemic) [Example 273, cis-5-cyclopropyl-N-(3-(5-fluoropyrimidin-2-yl)-4-methylphenyl)-1-(pyridin-2-yl)pyrrolidine-2-carboxamide]	1 to 10 µM	1.9 µM
Cc1ccc(NC(=O)[C@@H]2CC[C@@H](C3CC3)N2c2ccccn2)cc1-c1ncc(F)cn1 (racemic) [Example 274, trans-5-cyclopropyl-N-(3-(5-fluoropyrimidin-2-yl)-4-methylphenyl)-1-(pyridin-2-yl)pyrrolidine-2-carboxamide]	1 to 10 µM	1.2 µM
Cc1ccc(NC(=O)[C@@H]2C[C@H]3CC[C@@H]2N3c2ccccn2)cc1-c1ncc(F)cn1 (racemic) [Example 275, cis-N-(3-(5-fluoropyrimidin-2-yl)-4-methylphenyl)-7-(pyridin-2-yl)-7-azabicyclo[2.2.1]heptane-2-carboxamide]	1 to 10 µM	4.9 µM
Cc1ccc(NC(=O)C2CCC(=O)N2c2ccccn2)cc1-c1ncc(F)cn1 (racemic) [Example 278, N-[3-(5-fluoropyrimidin-2-yl)-4-methylphenyl]-5-oxo-1-pyridin-2-ylpyrrolidine-2-carboxamide]	> 10 µM	17 µM
Cc1ccc(NC(=O)[C@@H]2CN(CC(F)(F)F)C[C@H]2c2ccccn2)cc1-c1ncc(F)cn1 (racemic) [Example 280, trans-N-[3-(5-fluoropyrimidin-2-yl)-4-methylphenyl]-4-pyridin-2-yl-1-(2,2,2-trifluoroethyl)pyrrolidine-3-carboxamide]	> 10 µM	28 µM
Cc1ccc(NC(=O)[C@H]2C[C@@H]2C2CC2)cc1-c1cccnn1 (racemic) [Example 283, trans-2-cyclopropyl-N-(4-methyl-3-pyridazin-3-ylphenyl)cyclopropane-1-carboxamide]	> 10 µM	11 µM
Cc1ccc(NC(=O)[C@@H]2C[C@@H]2C2CC2)cc1-c1cccnn1 (racemic) [Example 284, cis-2-cyclopropyl-N-(4-methyl-3-pyridazin-3-ylphenyl)cyclopropane-1-carboxamide]	1 to 10 µM	1.8 µM
Cc1ccc(NC(=O)C2CCc3cccnc32)cc1-c1ncc(F)cn1 (racemic) [Example 290, N-[3-(5-fluoropyrimidin-2-yl)-4-methylphenyl]-6,7-dihydro-5H-cyclopenta[b]pyridine-7-carboxamide]	> 10 µM	17 µM
Cc1ccc(NC(=O)C2CC23CCC3)cc1-c1cccnn1 (racemic) [Example 293, N-(4-methyl-3-pyridazin-3-ylphenyl)spiro[2.3] hexane-2-carboxamide]	1 to 10 µM	2.4 µM
Cc1ccc(NC(=O)C(C)C2CCC2)cc1-c1cccnn1 (racemic) [Example 297, 2-cyclobutyl-N-(4-methyl-3-pyridazin-3-ylphenyl)propanamide]	1 to 10 µM	6.5 µM
